The text below walks through data of US9382197B2, “Substituted hydroxamic acids and uses thereof” (Millennium Pharmaceuticals, Inc., priority 2010, dated 2016).

Each structure is given as a SMILES string.

The first experiment deals with T1, purified human HDAC6 (Homo sapiens, UniProt Q9UBN7).
T1 construct: purchased BPS Bioscience 5006
T1 sequence (Q9UBN7 1-1215): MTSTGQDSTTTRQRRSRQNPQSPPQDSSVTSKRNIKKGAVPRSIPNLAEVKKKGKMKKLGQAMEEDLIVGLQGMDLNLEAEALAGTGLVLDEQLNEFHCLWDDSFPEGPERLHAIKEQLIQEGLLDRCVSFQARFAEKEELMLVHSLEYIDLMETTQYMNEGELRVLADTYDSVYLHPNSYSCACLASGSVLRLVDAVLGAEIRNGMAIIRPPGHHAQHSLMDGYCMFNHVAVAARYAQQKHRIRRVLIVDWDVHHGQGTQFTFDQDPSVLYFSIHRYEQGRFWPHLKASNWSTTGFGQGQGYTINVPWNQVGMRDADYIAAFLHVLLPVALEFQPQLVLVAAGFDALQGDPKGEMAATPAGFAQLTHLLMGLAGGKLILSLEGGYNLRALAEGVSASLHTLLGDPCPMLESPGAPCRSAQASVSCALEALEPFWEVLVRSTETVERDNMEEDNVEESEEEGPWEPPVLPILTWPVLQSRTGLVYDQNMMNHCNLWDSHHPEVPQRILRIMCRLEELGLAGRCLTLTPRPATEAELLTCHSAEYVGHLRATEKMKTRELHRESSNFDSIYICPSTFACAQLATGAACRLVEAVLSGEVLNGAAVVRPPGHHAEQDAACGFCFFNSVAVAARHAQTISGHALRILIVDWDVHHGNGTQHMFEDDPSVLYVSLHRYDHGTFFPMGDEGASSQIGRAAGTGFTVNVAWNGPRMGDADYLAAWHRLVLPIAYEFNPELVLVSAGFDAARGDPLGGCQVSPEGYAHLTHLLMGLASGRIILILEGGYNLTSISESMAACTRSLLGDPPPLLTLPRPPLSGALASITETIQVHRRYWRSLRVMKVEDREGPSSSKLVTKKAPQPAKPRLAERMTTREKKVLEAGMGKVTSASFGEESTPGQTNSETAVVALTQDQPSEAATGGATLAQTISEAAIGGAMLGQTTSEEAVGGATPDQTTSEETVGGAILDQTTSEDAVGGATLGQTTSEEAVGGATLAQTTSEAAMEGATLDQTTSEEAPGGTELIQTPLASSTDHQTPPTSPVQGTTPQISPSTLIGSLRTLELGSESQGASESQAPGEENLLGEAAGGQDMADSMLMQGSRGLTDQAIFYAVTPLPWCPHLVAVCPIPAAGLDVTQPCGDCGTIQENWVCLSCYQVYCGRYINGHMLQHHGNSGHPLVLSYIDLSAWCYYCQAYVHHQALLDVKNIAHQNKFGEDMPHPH
The experiment is described as follows: HDAC6 Enzyme Assay. The settings on record: bin: greater than 500 nM and less than 1 μM (lower bound in nM, upper bound in μM). In kind it is biochemical. The protocol:
To measure the inhibition of HDAC6 activity, purified human HDAC6 (BPS Bioscience; Cat. No. 5006) is incubated with substrate Ac-Arg-Gly-Lys(Ac)-AMC peptide (Bachem Biosciences; Cat. No. 1-1925) for 1 hour at 30° C. in the presence of test compounds or vehicle DMSO control. The reaction is stopped with the HDAC inhibitor trichostatin A (Sigma; Cat. No. T8552) and the amount of Arg-Gly-Lys-AMC generated is quantitated by digestion with trypsin (Sigma; Cat. No. T1426) and subsequent measurement of the amount of AMC released using a fluorescent plate reader (Pherastar; BMG Technologies) set at Ex 340 nm and Em 460 nm. Concentration response curves are generated by calculating the fluorescence increase in test compound-treated samples relative to DMSO-treated controls, and enzyme inhibition (IC50) values are determined from those curves.
In general, IC50 refers to the concentration that gives 50% inhibition. Read a high IC50 as lower potency. As for `CC(C)(C)C(NC(=O)C1(c2ccc(Cl)cc2)CC1)c1ccc(C(=O)NO)cc1` (centres unmarked) [Compound I-41, 4-[1-({[1-(4-chlorophenyl)cyclopropyl]carbonyl}amino)-2,2-dimethylpropyl]-N-hydroxybenzamide], the IC50 lay in the range of 500 to 1000 nM.
For the compound `CC(C)(C)C(NC(=O)c1cc(C(F)(F)F)cc(C(F)(F)F)c1)c1ccc(C(=O)NO)cc1` (centres unmarked) [Compound I-52, N-(1-{4-[(hydroxyamino)carbonyl]phenyl}-2,2-dimethylpropyl)-3,5-bis(trifluoromethyl)benzamide], the concentration for half-maximal inhibition (IC50) was in the range of 500 to 1000 nM.

The experiment is the same for the next values; noted with them: bin: greater than 1 μM.
`CC(C)C(=O)NC(C)c1ccc(C(=O)NO)cc1` (centres unmarked) [Compound I-36, N-hydroxy-4-[1-(isobutyrylamino)ethyl]benzamide] yielded a 50% inhibitory concentration (IC50) greater than 1000 nM.
`CC(NC(=O)c1cc(Cl)c(Cl)n1C)c1cccc(C(=O)NO)c1` (centres unmarked) [Compound I-39, 4,5-dichloro-N-(1-{3-[(hydroxyamino)carbonyl]phenyl}ethyl)-1-methyl-1H-pyrrole-2-carboxamide] displayed an IC50 greater than 1000 nM.
In turn, `CC(NC(=O)c1cnnc2ccccc12)c1ccc(C(=O)NO)cc1` (centres unmarked) [Compound I-56, N-(1-{4-[(hydroxyamino)carbonyl]phenyl}ethyl)cinnoline-4-carboxamide] had a half-maximal inhibitory concentration (IC50) greater than 1000 nM.
Compound `CC(NC(=O)c1ccccc1C(F)(F)F)c1cccc(C(=O)NO)c1` (centres unmarked) [Compound I-57, N-(1-{3-[(hydroxyamino)carbonyl]phenyl}ethyl)-2-(trifluoromethyl)benzamide] showed an IC50 greater than 1000 nM.
Same read-out and setting: next, `COc1ccc(CCCC(=O)NC(C)c2ccc(C(=O)NO)cc2)cc1` (centres unmarked) [Compound I-70, N-hydroxy-4-(1-{[4-(4-methoxyphenyl)butanoyl]amino}ethyl)benzamide]: greater than 1000 nM.

The experiment is the same for the next values; noted with them: purified human HDAC6, substrate Ac-Arg-Gly-Lys(Ac)-AMC, 1 hour at 30° C.; reported as bins.
The compound `CC(NC(=O)c1cn2cc(Cl)ccc2n1)c1ccc(C(=O)NO)cc1` (centres unmarked) [Compound I-35, 6-chloro-N-(1-{4-[(hydroxyamino)carbonyl]phenyl}ethyl)imidazo[1,2-a]pyridine-2-carboxamide] displayed a half-maximal inhibitory concentration (IC50) of less than 100 nM.
On the same count and under the same terms, next, `CC(NC(=O)Nc1ccc(F)cc1)c1ccc(C(=O)NO)cc1` (centres unmarked) [Compound I-37, 4-[1-({[(4-fluorophenyl)amino]carbonyl}amino)ethyl]-N-hydroxybenzamide]: less than 100 nM; `CC(C)Oc1ccc(C(=O)NC(C)c2ccc(C(=O)NO)cc2)cc1` (centres unmarked) [Compound I-38, N-(1-{4-[(hydroxyamino)carbonyl]phenyl}ethyl)-4-isopropoxybenzamide]: less than 100 nM.
`CC(C)C(NC(=O)c1ccc(F)cc1)c1ccc(C(=O)NO)cc1` (centres unmarked) [Compound I-40, 4-fluoro-N-(1-{4-[(hydroxyamino)carbonyl]phenyl}-2-methylpropyl)benzamide] yielded an IC50 of 100 to 500 nM.
On the same count and under the same terms, next, `Cc1nc(C(=O)NC(c2ccc(C(=O)NO)cc2)C(C)(C)C)cs1` (centres unmarked) [Compound I-42, N-(1-{4-[(hydroxyamino)carbonyl]phenyl}-2,2-dimethylpropyl)-2-methyl-1,3-thiazole-4-carboxamide]: 100 to 500 nM.
`CC(C)C(NC(=O)c1ccc2ncsc2c1)c1ccc(C(=O)NO)cc1` (centres unmarked) [Compound I-43, N-(1-{4-[(hydroxyamino)carbonyl]phenyl}-2-methylpropyl)-1,3-benzothiazole-6-carboxamide] yielded an IC50 of 100 to 500 nM.
Compound `COc1ccc(NC(=O)NC(C)c2ccc(C(=O)NO)cc2)c(OC)c1` (centres unmarked) [Compound I-44, 4-[1-({[(2,4-dimethoxyphenyl)amino]carbonyl}amino)ethyl]-N-hydroxybenzamide] showed an IC50 of less than 100 nM.
On the same count and under the same terms, next, `CC(NC(=O)CCc1ccccc1)c1ccc(C(=O)NO)cc1` (centres unmarked) [Compound I-45, N-hydroxy-4-{1-[(3-phenylpropanoyl)amino]ethyl}benzamide]: less than 100 nM; `O=C(NO)c1ccc([C@H](NC(=O)C23CC4CC(CC(C4)C2)C3)C2CC2)cc1` [Compound I-46, N-((R)-cyclopropyl{4-[(hydroxyamino)carbonyl]phenyl}methyl)adamantane-1-carboxamide]: 100 to 500 nM; `COc1ccc(S(=O)(=O)NC(C)c2ccc(C(=O)NO)cc2)cc1` (centres unmarked) [Compound I-47, N-hydroxy-4-(1-{[(4-methoxyphenyl)sulfonyl]amino}ethyl)benzamide]: 100 to 500 nM.
Regarding `Cc1oc(-c2ccccc2)nc1CC(=O)NC(c1ccc(C(=O)NO)cc1)C(C)C` (centres unmarked) [Compound I-48, N-hydroxy-4-(2-methyl-1-{[(5-methyl-2-phenyl-1,3-oxazol-4-yl)acetyl]amino}propyl)benzamide], the IC50 is 100 to 500 nM.
Same read-out and setting: next, `C[C@H](NC(=O)c1cc2ccccc2s1)c1ccc(C(=O)NO)cc1` [Compound I-53, N-((1S)-1-{4-[(hydroxyamino)carbonyl]phenyl}ethyl)-1-benzothiophene-2-carboxamide]: less than 100 nM; `Cc1ccc(NC(=O)NC(C)c2ccc(C(=O)NO)cc2)cc1C` (centres unmarked) [Compound I-55, 4-[1-({[(3,4-dimethylphenyl)amino]carbonyl}amino)ethyl]-N-hydroxybenzamide]: less than 100 nM.
`CC(C)C(NC(=O)C12CC3CC(CC(C3)C1)C2)c1ccc(C(=O)NO)cc1` (centres unmarked) [Compound I-58, N-(1-{4-[(hydroxyamino)carbonyl]phenyl}-2-methylpropyl)adamantane-1-carboxamide]: the IC50 was less than 100 nM.
In the case of `CC(NC(=O)C(C)(C)C)c1ccc(C(=O)NO)cc1` (centres unmarked) [Compound I-59, 4-{1-[(2,2-dimethylpropanoyl)amino]ethyl}-N-hydroxybenzamide], the concentration for half-maximal inhibition (IC50) was less than 100 nM.
In turn, `CCC[C@@H](NC(=O)c1sc2ccccc2c1C)c1ccc(C(=O)NO)cc1` [Compound I-62, N-((1R)-1-{4-[(hydroxyamino)carbonyl]phenyl}butyl)-3-methyl-1-benzothiophene-2-carboxamide] had an IC50 of less than 100 nM.
Take `CC(NC(=O)c1ccc(-n2cccc2)cc1)c1ccc(C(=O)NO)cc1` (centres unmarked) [Compound I-63, N-(1-{4-[(hydroxyamino)carbonyl]phenyl}ethyl)-4-(1H-pyrrol-1-yl)benzamide]: the IC50 was less than 100 nM.
Turning to `CC(C)[C@@H](NC(=O)c1cccn1C)c1ccc(C(=O)NO)cc1` [Compound I-65, N-((1R)-1-{4-[(hydroxyamino)carbonyl]phenyl}-2-methylpropyl)-1-methyl-1H-pyrrole-2-carboxamide], the IC50 was less than 100 nM.
The same measure, in the same setting: next, `Cn1ccc(C(=O)NC(c2ccc(C(=O)NO)cc2)C(C)(C)C)n1` (centres unmarked) [Compound I-66, N-(1-{4-[(hydroxyamino)carbonyl]phenyl}-2,2-dimethylpropyl)-1-methyl-1H-pyrazole-3-carboxamide]: 100 to 500 nM; `CC(C)[C@H](NC(=O)c1cc2ccccc2s1)c1ccc(C(=O)NO)cc1` [Compound I-67, N-((1S)-1-{4-[(hydroxyamino)carbonyl]phenyl}-2-methylpropyl)-1-benzothiophene-2-carboxamide]: 100 to 500 nM; `CC(C)[C@@H](NC(=O)c1cc2ccccc2[nH]1)c1ccc(C(=O)NO)cc1` [Compound I-68, N-((1R)-1-{4-[(hydroxyamino)carbonyl]phenyl}-2-methylpropyl)-1H-indole-2-carboxamide]: less than 100 nM.
In turn, `Cc1ccc2[nH]c(C(=O)NC(c3ccc(C(=O)NO)cc3)C(C)C)cc2c1` (centres unmarked) [Compound I-69, N-(1-{4-[(hydroxyamino)carbonyl]phenyl}-2-methylpropyl)-5-methyl-1H-indole-2-carboxamide] returned a half-inhibitory concentration (IC50) of less than 100 nM.
